US9381186B2, “Substituted chroman derivatives, medicaments and use in therapy” (MEI Pharma, Inc., priority 2004, dated 2016)
≈ marks a conversion by molar mass, not a printed value. Like-named read-outs stand apart in the source and are kept apart here.

What was measured:
NCI-H23 = assay: MTT proliferation assay, lung NCI-H23; assay type: cell-based; settings: Homo sapiens; Lung NCI-H23, Table 2.1; read-out: cytoxicity (IC50)
Experimental: (§1) An cultures were supplemented with 10% FCS (CSL, Australia), penicillin (100 U/ml), streptomycin ([…]), L-glutamine (2 mM) and sodium bicarbonate (1.2 g/L), and cultured at 37° C. in a humidified atmosphere of 5% CO2. All cell lines were purchased from ATCC (Maryland, USA) except where noted.
(§2) IC50 values were determined for each cell line. Cells were seeded in 96-well plates at an appropriate cell density as determined from growth kinetics analysis and cultured for 5 days in the absence and presence of the test compounds. Cell proliferation was assessed after the addition of 20 μl of 3-4,5 dimethylthiazol-2,5-diphenyl tetrazolium bromide (MTT, 2.5 mg/ml in PBS, Sigma) for 3-4 hrs at 37° C. according to manufacturer's instructions. IC50 values were calculated from semi-log plots of % of control proliferation on the y-axis against log dose on the x-axis.

NCI-H460 = assay: MTT proliferation assay, NSC lung NCI-H460; assay type: cell-based; settings: Homo sapiens; NSC Lung NCI-H460, Table 2.2
Experimental: as §1, §2

MDA-MB-468 = assay: MTT proliferation assay, breast MDA-MB-468; assay type: cell-based; settings: Homo sapiens
[1] = Preliminary formulation study, solubility in 20% HPBCD; assay type: physicochemical; settings: aqueous with cosolvent or surfactant or cyclodextrin, preliminary formulation studies
[2] = Oral pharmacokinetics in female BALB/c mice; assay type: in vivo, mouse
Experimental: Compound No. 1 labelled above was prepared as homogenous suspensions in 1% CMC (m:v, water). The formulation was delivered orally by gavage to female BALB/c mice at a dosage of 50 mg/kg. Three animals were allocated to each timepoint (15 min, 30 min, 1 hr, 4 hr and 24 hr). At each respective timepoint, animals were euthanised by cervical dislocation and blood collected. The concentration of free compound was analysed by mass spectroscopy.

CP70 = assay: MTT proliferation assay, ovarian CP70; assay type: cell-based
RK (rabbit kidney) cells = assay: Cytotoxicity (MTT proliferation assay) against rabbit kidney cells; assay type: cell-based
Experimental: (§3) The normal cell line NFF (neonatal foreskin fibroblasts) was a gift from Dr. Peter Parsons (Queensland Institute of Medical Research). RK (rabbit kidney) cells were obtained from Miller Whalley (Macquarie University). Both cell lines were cultured in RPMI supplemented with 10% FCS (CSL, Australia), penicillin (100 U/ml), streptomycin ([…]), L-glutamine (2 mM) and sodium bicarbonate (1.2 g/L), and cultured at 37° C. in a humidified atmosphere of 5% CO2
as §2

HPAC = assay: MTT proliferation assay, pancreatic HPAC; assay type: cell-based; settings: Homo sapiens, Table 2.2
PC3 = assay: MTT proliferation assay, prostate PC3; assay type: cell-based; settings: Homo sapiens, PC-3
Experimental: as §1, §2

HTB-138 = assay: MTT proliferation assay, glioma HTB-138; assay type: cell-based
Experimental: as §1, §2

CCRF-CEM = assay: MTT proliferation assay, leukaemia (ALL) CCRF-CEM; assay type: cell-based; settings: Homo sapiens, Table 2.2
Experimental: as §1, §2

HT-29 = assay: MTT proliferation assay, colorectal HT-29; assay type: cell-based; settings: for IC50: Homo sapiens
Experimental: as §1, §2

[3] = test system: murine macrophages (RAW 264.7) stimulated with LPS; assay: Eicosanoid synthesis in LPS-stimulated RAW 264.7 macrophages; assay type: cell-based, mouse; settings: test compound 10 μM, LPS 50 ng/ml, 16 hrs; negative = inhibition
Experimental: The mouse macrophage cell line RAW 264.7 was cultured in DMEM supplemented with foetal calf serum (FCS), 2 mM glutamine and 50 U/ml penicillin/streptomycin. Subconfluent cells were detached from the flask by gentle scraping and 24-well plates seeded at 5×10^5 cells per well and allowed to adhere for 1 hr. Cells were then treated either test compound at a concentration of 10 μM (in 0.025% DMSO) or vehicle alone, and incubated for 1 hr. LPS 50 ng/ml (LPS—Sigma-Aldrich) was then added. After incubation for 16 hrs, culture media was collected and stored at −80° C. for ecosanoid measurements using enzyme immunometric assays (PGE2 and TXB2—Cayman Chemical).

MM200 = assay: MTT proliferation assay, melanoma MM200; assay type: cell-based
[4] = test system: NFF (neonatal foreskin fibroblasts); assay: Cytotoxicity (MTT proliferation assay) against neonatal foreskin fibroblasts; assay type: cell-based, Human; settings: Homo sapiens, Fibroblast
Experimental: as §3, §2

cancer cell lines = assay: Proliferation assays, panel of cancer cell lines; assay type: cell-based; settings: CP70, PC3, MDA-MB-468, HTB-138 and lung cancer cell lines

- IC50 (NCI-H460): 1200 ± 450 nM
- IC50 (MDA-MB-468; Breast MDA-MB-468, Table 2.2, read-out: IC50): 1000 ± 600 nM
- solubility [1]: 11.2 mg/mL (≈ 30.9 mM)
- concentration at 1 h ([2]; female, BALB/c, mouse, faeces, po, 50 mg/kg, oral 50 mg/kg, Time 1 (head prints days), read-out: Faeces Free): 1060 ± 913 µM
- concentration at 4 h ([2]; female, BALB/c, mouse, faeces, po, 50 mg/kg, oral 50 mg/kg, Time 4 (head prints days), read-out: Faeces Free): 1790 ± 625 µM
- concentration at 24 h ([2]; female, BALB/c, mouse, faeces, po, 50 mg/kg, oral 50 mg/kg, Time 24 (head prints days), read-out: Faeces Free): 800 ± 670 µM
- half-life ([2]; female, BALB/c, mouse, serum, 50 mg/kg, oral, sera, read-out: half life): ~30 min
- concentration at 0.25 h ([2]; female, BALB/c, mouse, serum, po, 50 mg/kg, oral 50 mg/kg, Time 0.25 (head prints days), read-out: Serum Free): 27.3 ± 23 µM
- concentration at 0.5 h ([2]; female, BALB/c, mouse, serum, po, 50 mg/kg, oral 50 mg/kg, Time 0.5 (head prints days), read-out: Serum Free): 8.2 ± 6.5 µM
- concentration at 1 h ([2]; female, BALB/c, mouse, serum, po, 50 mg/kg, oral 50 mg/kg, Time 1 (head prints days), read-out: Serum Free): 2.4 ± 1.6 µM
- concentration at 4 h ([2]; female, BALB/c, mouse, serum, po, 50 mg/kg, oral 50 mg/kg, Time 4 (head prints days), read-out: Serum Free): 0.3 ± 0.02 µM
- concentration at 24 h ([2]; female, BALB/c, mouse, serum, po, 50 mg/kg, oral 50 mg/kg, Time 24 (head prints days), read-out: Serum Free): 0.05 ± 0.02 µM
- concentration at 0.25 h ([2]; female, BALB/c, mouse, serum, po, 50 mg/kg, oral, Time 0.25, Table 4, read-out: Free concentration, comparative oral pharmacokinetic data): 27.3 ± 23 µM
- concentration at 0.5 h ([2]; female, BALB/c, mouse, serum, po, 50 mg/kg, oral, Time 0.5, Table 4, read-out: Free concentration, comparative oral pharmacokinetic data): 8.2 ± 6.5 µM
- concentration at 1 h ([2]; female, BALB/c, mouse, serum, po, 50 mg/kg, oral, Time 1, Table 4, read-out: Free concentration, comparative oral pharmacokinetic data): 2.4 ± 1.6 µM
- concentration at 4 h ([2]; female, BALB/c, mouse, serum, po, 50 mg/kg, oral, Time 4, Table 4, read-out: Free concentration, comparative oral pharmacokinetic data): 0.33 ± 0.02 µM
- concentration at 24 h ([2]; female, BALB/c, mouse, serum, po, 50 mg/kg, oral, Time 24, Table 4, read-out: Free concentration, comparative oral pharmacokinetic data): 0.05 ± 0.02 µM
- concentration at 30 min ([2]; female, BALB/c, mouse, serum, po, 50 mg/kg, oral, after 30 min, read-out: free concentration in sera): 8.2 µM
- concentration at 1 hr ([2]; female, BALB/c, mouse, serum, po, 50 mg/kg, oral, after 1 hr, read-out: free concentration in sera): 2.4 µM
- concentration at 0.25 h ([2]; female, BALB/c, mouse, urine, po, 50 mg/kg, oral 50 mg/kg, Time 0.25 (head prints days), read-out: Urine Free): 17.1 ± 7.2 µM
- concentration at 0.5 h ([2]; female, BALB/c, mouse, urine, po, 50 mg/kg, oral 50 mg/kg, Time 0.5 (head prints days), read-out: Urine Free): 22.1 ± 1.5 µM
- concentration at 1 h ([2]; female, BALB/c, mouse, urine, po, 50 mg/kg, oral 50 mg/kg, Time 1 (head prints days), read-out: Urine Free): 26.3 ± 2.2 µM
- concentration at 4 h ([2]; female, BALB/c, mouse, urine, po, 50 mg/kg, oral 50 mg/kg, Time 4 (head prints days), read-out: Urine Free): 1.1 ± 0.1 µM
- concentration at 24 h ([2]; female, BALB/c, mouse, urine, po, 50 mg/kg, oral 50 mg/kg, Time 24 (head prints days), read-out: Urine Free): 0.1 ± 0.1 µM
- share of compound recovered from faeces present in free form ([2]; oral): ~100%
- Cmax of free compound in sera ([2]; oral, 15 minutes post administration): 27.3 µM
- free concentration relative to phenoxodiol ([2]; oral, after 15 and 30 min): 10-20 fold
- concentration relative to phenoxodiol ([2]; oral, after 1 hr): Approximately 2 fold
- share present as the free entity in urine ([2]; oral, at any time-point): ≤ 2%
- IC50 (PC3; Prostate PC3, Table 2.2, read-out: IC50): 1600 ± 800 nM
- IC50 (HTB-138; Glioma HTB-138, Table 2.2, read-out: IC50): 1160 nM
- IC50 (CCRF-CEM): 1600 ± 1200 nM
- IC50 (HT-29; Colorectal HT-29, Table 2.2, read-out: IC50): 15700 ± 2400 nM
- IC50 (MM200; Melanoma MM200, Table 2.2, read-out: IC50): 780 ± 230 nM
- activity relative to phenoxodiol (IC50 comparison) (cancer cell lines): 2-10 fold
Structure (SMILES): COc1ccc(C2c3ccc(O)c(C)c3OCC2c2ccc(O)cc2)cc1 (stereo not shown) [Compound 1, 3-(4-hydroxyphenyl)-4-(4-methoxyphenyl)-8-methyl-3,4-dihydro-2H-chromen-7-ol]
- IC50 (NCI-H23): 1900 ± 100 nM
- IC50 (MDA-MB-468; Breast MDA-MB-468, Table 2.1, read-out: cytoxicity (IC50)): 600 ± 10 nM
- IC50 (CP70; Ovarian CCP70, Table 2.1, read-out: cytoxicity (IC50)): 1700 nM
- IC50 (CP70; Ovarian CP70, Table 2.2, read-out: IC50): 1900 ± 400 nM
- IC50 (RK (rabbit kidney) cells; Oryctolagus cuniculus, rabbit kidney cells): > 60000 nM
- IC50 (RK (rabbit kidney) cells; Rabbit Kidney cells): > 60000 nM
- IC50 (HPAC): 51700 ± 8000 nM
- IC50 (PC3; Prostate PC3, Table 2.1, read-out: cytoxicity (IC50)): 1700 ± 500 nM
- IC50 (HTB-138; Glioma HTB-138, Table 2.1, read-out: cytoxicity (IC50)): 1100 nM
- IC50 (HT-29; Colorectal HT-29, Table 2.1, read-out: cytoxicity (IC50)): 17400 nM
- activity in words (HT-29; colorectal cell line HT-29): moderately active
- Percentage change in PGE2 synthesis compared with vehicle [3]: −53.8%
- Percentage change in TXB2 synthesis compared with vehicle [3]: −15.9%
- IC50 (MM200; Melanoma MM200, Table 2.1, read-out: cytoxicity (IC50)): 1000 ± 10 nM
- IC50 ([4]; Neonatal Foreskin Fibroblasts (Human, NFF), read-out: IC50): ~2000 nM
- IC50 ([4]; non-transformed neonatal foreskin fibroblasts, read-out: IC50): 2000 nM
- IC50 ([4]; text says rabbit kidney cells, values are those of the NFF line of Table 1, read-out: degree of toxicity (IC50)): 2000 nM
